Assay [1] relates to human plasma clots. The assay is described as follows: Incorporation into human plasma clots (in vitro plasma clot assay). The format is biochemical. To be noted: control vials without thrombin and calcium chloride, 60 minutes. How it is done: (§1) Incorporation of radiolabelled substrates into fibrin was investigated by induction of an in vitro human plasma clot in the following manner. To a siliconised 5 ml glass vial was added, (a) 800 μl of Tris(hydroxymethyl)aminomethane buffered saline pH 7.5 containing calcium chloride (50 mM Tris, 150 mM sodium chloride, 4 mM calcium chloride.), (b) 40 μl of physiological salt solution containing 100 units of thrombin per ml, (c) 400 μl of human plasma containing the radiolabelled substrate at a concentration of typically 10 kBq/ml. To aid induction of clot a roughened glass rod was added to the reaction vial. Control vials were prepared similarly but with the omission of thrombin and calcium chloride.
(§2) The proportion of total radioactivity was calculated by counting in suitable detection apparatus.
(§3) The fraction of radioactivity retained on the filter, after subtraction of the non-specific binding determined from the control, is a measure of incorporation into the filtered clots.

Assay [2] addresses T1, human plasma clots (Homo sapiens, UniProt P00488).
T1 construct: Factor XIII is transformed into its active form Factor XIIIa by thrombin in the presence of calcium ions; from tissue; host or cells: human plasma, clotted in vitro with thrombin and calcium chloride
T1 sequence (P00488 39-732): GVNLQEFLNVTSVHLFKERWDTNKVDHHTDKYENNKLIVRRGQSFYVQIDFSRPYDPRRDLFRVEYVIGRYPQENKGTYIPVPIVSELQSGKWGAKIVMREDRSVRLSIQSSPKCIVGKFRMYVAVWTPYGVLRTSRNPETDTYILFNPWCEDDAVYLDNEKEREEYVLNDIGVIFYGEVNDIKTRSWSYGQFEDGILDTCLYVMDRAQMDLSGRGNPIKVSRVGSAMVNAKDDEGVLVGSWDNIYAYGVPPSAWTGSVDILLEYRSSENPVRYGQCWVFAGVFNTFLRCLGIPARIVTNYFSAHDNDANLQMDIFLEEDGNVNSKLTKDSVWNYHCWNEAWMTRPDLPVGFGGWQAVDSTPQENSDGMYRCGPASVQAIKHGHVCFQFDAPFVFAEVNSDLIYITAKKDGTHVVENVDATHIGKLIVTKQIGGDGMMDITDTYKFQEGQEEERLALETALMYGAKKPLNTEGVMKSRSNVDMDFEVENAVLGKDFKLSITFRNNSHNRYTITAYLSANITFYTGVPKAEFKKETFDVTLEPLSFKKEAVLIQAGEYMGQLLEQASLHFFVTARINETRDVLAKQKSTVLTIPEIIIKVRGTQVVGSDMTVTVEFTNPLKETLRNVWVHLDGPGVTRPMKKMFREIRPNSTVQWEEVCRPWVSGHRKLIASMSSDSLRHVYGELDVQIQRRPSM
The description is as above. The format is biochemical. To be noted: for % specific uptake*: % retained with thrombin − % retained no thrombin; for % retained in plasma clot assay (with thrombin): human plasma with thrombin and calcium chloride, 60 minutes, ca. 20° C. How it is done: as §1, §2, §3

In a further assay the target is T2, Factor XIIIa (Homo sapiens, UniProt P00488).
T2 construct: Factor XIII is transformed into its active form Factor XIIIa by thrombin in the presence of calcium ions; from tissue; host or cells: human plasma
T2 sequence (P00488 39-732 limits assumed): T1 sequence (P00488 39-732)
The assay is described as follows: Factor XIIIa dependency of incorporation (dimethylcasein uptake, normal vs Factor XIII deficient plasma). It counts as biochemical. As to conditions: 1 KBq/ml, 60 minutes; uptake in normal plasma minus Factor XIII deficient plasma. How it is done:
The assay was changed by replacing the mercaptoethanol with aprotinin at a final concentration of 2 μg/ml, and dimethylcasein (DMC) was used instead of casein.

Assay [3] concerns clots induced in rat inferior vena cava. The assay is described as follows: Incorporation into clots induced in a rat model (rat inferior vena cava model). The format is in vivo. To be noted: rat IVC model. How it is done: The rats (Male Wistar, 250-350 g) were anaesthetised with 15% urethane. After laparotomy, the vena cava was isolated and freed of surrounding fat tissue. […] The average weight of the clots formed in this model was around 27 mg, n=32, (5-50 mg range). The so compounds were injected 5 min post-induction. After 60 min the animals were sacrificed and the clot removed, weighed and counted. Other tissues e.g. blood, lung, heart, were also dissected and counted. The uptake of tracer into the clot was determined as the relative concentration (cpm/g of clot by dose/g animal ) and clot to background tissue.

The mark [4] stands for this setting: compound injected 5 min post-induction, clot removed after 60 min.

With `CC(=NO)C(C)(C)NCC(C)(CNC(=O)[C@@H](Cc1ccccc1)NC(=O)CCCCCN)CNC(C)(C)C(C)=NO` (stereo partly drawn) [Compound 5, 3,3,6,9,9-pentamethyl-6-N-[N-(6-aminohexanoyl)-D-phenylalanyl]aminomethyl-4,8-diazaundecane-2,10-dione dioxime], the “% retained in plasma clot assay (no thrombin)” value (shortened to “% retained … (no thrombin)”) in the assay on human plasma clots [1] is 1.9%. For the same compound, on human plasma clots [2], the “% specific uptake*” value is listed as 4.1% and the “% retained in plasma clot assay (with thrombin)” value (from here on “% retained … (with thrombin)”) is listed as 6%. Besides, the “% specific DMC casein uptake” value at Factor XIIIa is 10%.
With “1-(4-(N-(5-aminopentyl)-amidosulphonyl)benzyl)-1,4,8,11-tetraazacyclotetradecane [Compound 20]”, the “% retained … (no thrombin)” value in the assay on human plasma clots [1] is 0.6%.
With `CC(=NO)C(C)(C)NCC(C)(CNC(=O)N1CCN(CNC(=O)c2ccc(S(=O)(=O)NCCCCCN)cc2)CC1)CNC(C)(C)C(C)=NO` (stereo not shown) [Compound 11, 3,3,6,9,9-pentamethyl-6-N-[4-N-{4-(N-(5-aminopentyl)amidosulphonyl)benzoyl}aminomethylpiperazinylcarbonyl]aminomethyl-4,8-diazaundecane-2,10-dione dioxime], in the assay on human plasma clots [1], the “% retained … (no thrombin)” value is reported as 3.2%. Moreover, on human plasma clots [2], the “% specific uptake*” value worked out at 12.8% and the “% retained … (with thrombin)” value is 16%. The “% specific DMC casein uptake” value at Factor XIIIa amounted to 24%.
Taken in the same sequence, the figures for `CC(=NO)C(C)(C)NCC(C)(CNC(=O)c1ccc(S(=O)(=O)NCCSCCN)cc1)CNC(C)(C)C(C)=NO` (stereo not shown) [Compound 9, 3,3,6,9,9-pentamethyl-6-(4-(N-[(S-aminoethyl)thioethyl]amidosulphonyl)benzamidomethyl)4,8-diazaundecane-2,10-dione dioxime] were 4.5%, 15.5%, 20% and 29%.
Taken in the same sequence, the figures for `CC(=NO)C(C)(C)NCC(C)(CNC(=O)c1ccc(NC(=O)CCCCCN)cc1)CNC(C)(C)C(C)=NO` (stereo not shown) [Compound 6, 3,3,6,9,9-pentamethyl-6-N-[4-N-(6aminohexanoyl)aminobenzoyl]aminomethyl-4,8-diazaundecane-2.10-dione dioxime] were 0.5%, 1.5%, 2% and 13%.
Regarding `CC(=NO)C(C)(C)NCC(C)(CN)CNC(C)(C)C(C)=NO` (stereo not shown) [Compound 2, 6-aminomethyl-3,3,6,9,9-pentamethyl-4,8-diazaundecane-2, 1 0-dione dioxime], the “% retained … (no thrombin)” value with human plasma clots [1] amounted to 0.3%. In addition, at human plasma clots [2], the “% specific uptake*” value came to 1.7% and the “% retained … (with thrombin)” value turned out to be 2%.
As to “3,3,6,9,9-pentamethyl-6-N-[α-N-(4-N-(5-aminopentyl)amidosulphonyl)benzoyl)amino-polethyleneglycol)-ω-carbonyl]aminomethyl-4,8-diazaundecane-2,10-dione dioxime [Compound 14]”, in the assay on human plasma clots [1], the “% retained … (no thrombin)” value amounted to 7.2%. Moreover, on human plasma clots [2], the “% specific uptake*” value was 27.8% and the “% retained … (with thrombin)” value is 35%. In assay [3] (60 min), this compound returned a Clot/Blood of 1.3, a Clot/Heart of 2.8, a Clot/Liver of 2.6 and a Clot/Lung of 1.5. In assay [3] (setting [4]), the “% ID/g (clot uptake)” value is listed as 0.18 ± 0.03 % ID/g and the “Relative conc (cpm/g of clot by dose/g animal)” value was 0.54 ± 0.11.
For the compound `CC(=NO)C(C)(C)NCC(C)(CNC(=O)[C@@H](CO)NC(=O)[C@@H](CO)NC(=O)[C@@H](CO)NC(=O)c1ccc(S(=O)(=O)NCCCCCN)cc1)CNC(C)(C)C(C)=NO` (stereo partly drawn) [Compound 10, 3,3,6,9,9-pentamethyl-6-N-[N-(4-N-(5aminopentyl)amidosulphonyl)benzoyl-D-serine-D-serine-D-serine]aminomethyl-4,8-diazaundecane-2,10-dione dioxime], the “% retained … (no thrombin)” value with human plasma clots [1] turned out to be 0.3%. Moreover, at human plasma clots [2], the “% specific uptake*” value is reported as 4.7% and the “% retained … (with thrombin)” value stood at 5%. Further, the “% specific DMC casein uptake” value at Factor XIIIa is reported as 6%.
`CC(=O)SCC(=O)NCC(=O)NCC(=O)NCC(=O)NCCCNC(=O)c1ccc(S(=O)(=O)NCCCCCN)cc1` [Compound 23, N-[S-acetyl-mercaptoacatylglycylglycylglycyl)-N′-(4-N-(5-aminopentyl)amidosulphonyl)benzoyl propane-1,3-diamine]: the “% retained … (no thrombin)” value in the assay on human plasma clots [1] was 0.8%. Moreover, at human plasma clots [2], the “% specific uptake*” value is listed as 14.2% and the “% retained … (with thrombin)” value was 16%. Besides, at Factor XIIIa, the “% specific DMC casein uptake” value worked out at 24.5%.

The values are drawn from patent US6897209B2, “Labelled factor XIIIa substrates” (GE Healthcare Limited, priority 1997, dated 2005).
